We go through 19 molecules from article PMC2856764 (Human immunology, 2010).

Ends that are not written are not given here. Peptide text beside a SMILES is read from it.

The subject of experiment [1] is CD8+ enriched human donor PBMC. Type of experiment: cell-based.
The next experiment deals with HLA-A*0301 (Homo sapiens, UniProt P04439). Description: biochemical. Type of experiment: binding.
For another experiment, the target named is HLA-A*1101 (Homo sapiens, UniProt P04439, A114D/D185E/E176A/F33Y/L180Q/S129P/T187R). Description: biochemical. Type of experiment: binding.
Another experiment has as its target HLA-A*3101 (Homo sapiens, UniProt P04439, A270S/D185E/E176V/E277Q/F33T/G231S/G80R/H175R/I121M/I218V/I322F/K168Q/L300P/L318F/M331R/P217A/Q94H/R138Q/T323A/T345S/T97I/V358M). Description: biochemical. Type of experiment: binding.
Another experiment has as its target HLA-A*3301 (Homo sapiens, UniProt P04439, A270S/D185E/E176V/E277Q/E87N/F33T/G231S/H175R/I121M/I218V/I322F/K168Q/K210R/L300P/L318F/M331R/P217A/Q86R/Q94H/R138Q/T323A/T345S/T97I/V358M/Y195H). The experiment is described as follows: biochemical. It counts as binding.
The target of another experiment is HLA-A*6801 (Homo sapiens, UniProt P04439, A269V/D185E/E176V/E277Q/E87N/F33Y/G231S/I121M/I166T/I218V/L180W/L300P/L318F/N151K/P208A/P217A/Q86R/R169H/T345S). Description: biochemical. It counts as binding.
The target of the next experiment is HLA-A*0201 (Homo sapiens, UniProt P04439, D140Y/D185E/D98H/E176V/E277Q/G131W/G231S/I119V/I121R/I166T/I218V/L300P/L318F/N151K/N90K/P208A/P217A/Q86G/Q94H/R138H/R169H/T345S). The experiment is described as follows: biochemical. It counts as binding.
For another experiment, the target named is HLA-A*0202 (Homo sapiens, UniProt P04439, D140Y/D185E/D98H/E176V/E277Q/G131W/G231S/I119L/I121R/I166T/I218V/L180W/L300P/L318F/N151K/N90K/P208A/P217A/Q67R/Q86G/Q94H/R138H/R169H/T345S). The experiment is described as follows: biochemical. Type of experiment: binding.
A further experiment concerns the target HLA-A*0203 (Homo sapiens, UniProt P04439, A173T/D140Y/D185E/D98H/E277Q/G131W/G231S/I119V/I121R/I166T/I218V/L180W/L300P/L318F/N151K/N90K/P208A/P217A/Q86G/Q94H/R138H/R169H/T345S). The experiment is described as follows: biochemical. It counts as binding.
For a further experiment, the target named is HLA-A*0206 (Homo sapiens, UniProt P04439, D140Y/D185E/D98H/E176V/E277Q/F33Y/G131W/G231S/I119V/I121R/I166T/I218V/L300P/L318F/N151K/N90K/P208A/P217A/Q86G/Q94H/R138H/R169H/T345S). The experiment is described as follows: biochemical. It counts as binding.
For a further experiment, the target named is HLA-A*6802 (Homo sapiens, UniProt P04439, A269V/D140Y/D185E/E176V/E277Q/E87N/F33Y/G231S/I121R/I166T/I218V/L180W/L300P/L318F/N151K/P208A/P217A/Q86R/R138H/R169H/S129P/T345S/V36M). Description: biochemical. Type of experiment: binding.
The next experiment concerns the target HLA-B*1801 (Homo sapiens, UniProt P01889, A329T/A93T/A95T/C349S/D201E/D54G/D98Y/E176V/E187T/E204Q/E69T/K202T/Q94N/R155S/R180L/S121R/V306I/Y140S/Y195H/Y33H/Y91S). The experiment is described as follows: biochemical. It counts as binding.
For another experiment, the target named is HLA-B*4001 (Homo sapiens, UniProt P01889, A65T/A93T/A95T/D138N/D98Y/E176V/E69K/N87E/Q56L/Q94N/R180L/S121R/S35A/S48T/T167S/V36M/W171L/Y33H/Y91S). Description: biochemical. It counts as binding.
Another experiment addresses HLA-B*4002 (Homo sapiens, UniProt P01889, A65T/A93T/A95T/D138N/D201E/D98Y/E176V/E204Q/E69K/K202T/N87E/Q56L/Q94N/R180L/S48T/Y33H/Y91S). The experiment is described as follows: biochemical. Type of experiment: binding.
For another experiment, the target named is HLA-B*4402 (Homo sapiens, UniProt P01889, A223V/A65T/A93T/A95T/D201E/D98Y/E176V/E187L/E204Q/E69K/G107R/H137Y/K202T/L105A/L119I/N104T/N87E/Q56L/Q94N/R106L/R155S/R180D/S101N/S121R/S35A/S48T/T118I/V36M/W191S/Y140D/Y91S). Description: biochemical. It counts as binding.
Another experiment has as its target HLA-B*4403 (Homo sapiens, UniProt P01889, A223V/A65T/A93T/A95T/D201E/D98Y/E176V/E187L/E204Q/E69K/G107R/H137Y/K202T/L105A/L119I/N104T/N87E/Q56L/Q94N/R106L/R155S/R180L/S101N/S121R/S35A/S48T/T118I/V36M/W191S/Y140D/Y91S). The experiment is described as follows: biochemical. Type of experiment: binding.
The next experiment concerns the target HLA-B*4501 (Homo sapiens, UniProt P01889, A329T/A65T/A93T/A95T/C349S/D138N/D201E/D98Y/E176V/E187L/E204Q/E69K/H137Y/K202T/L119W/N87E/Q56L/Q94N/R155S/R180D/S121R/S35A/S48T/V127L/V306I/V36M/W191S/Y140L/Y33H/Y91S). Description: biochemical. Type of experiment: binding.

`CC(C)C[C@H](NC(=O)[C@H](CS)NC(=O)[C@H](CO)NC(=O)[C@@H](N)CCCCN)C(=O)N1CCC[C@H]1C(=O)N[C@@H](C)C(=O)N[C@@H](CS)C(=O)N[C@H](C(=O)N[C@@H](Cc1ccc(O)cc1)C(=O)O)C(C)C` [NP.273] (H-KSCLPACVY-OH; N-terminus and C-terminus assumed): in [1], the IFN-γ responses is recorded as 590; 1200; 300 SFC/10^6 CD8^+ cells and the peptide-specific recall response is “Significant”.
Regarding `CC(C)C[C@H](NC(=O)CNC(=O)[C@H](Cc1ccc(O)cc1)NC(=O)[C@@H](NC(=O)[C@H](CS)NC(=O)[C@H](C)NC(=O)[C@@H]1CCCN1C(=O)[C@H](CC(C)C)NC(=O)[C@@H](N)CS)C(C)C)C(=O)O` [NP.275] (H-CLPACVYGL-OH; N-terminus and C-terminus assumed), in [1], the IFN-γ responses was 350; 986; 2200 SFC/10^6 CD8^+ cells and the peptide-specific recall response was “responses induced”.
For ASCMGLIYNR [M1.125], the IC50 (in general, the midpoint of a concentration-inhibition curve) at HLA-A*0301 was found to be 816 nM; against HLA-A*1101, 32 nM; against HLA-A*3101, 7 nM; against HLA-A*3301, 445 nM; against HLA-A*6801, 391 nM.
Regarding FQGRGVFEL [NP.458], the IC50 at HLA-A*0201 was 143 nM; against HLA-A*0202, 7 nM; at HLA-A*0203, 307 nM; against HLA-A*0206 it was 7 nM; at HLA-A*6802, more than 10000 nM.
Turning to FQVDCFLWHV [NS1.9], the IC50 at HLA-A*0201 amounted to 4 nM; against HLA-A*0202, 4 nM; at HLA-A*0203, 3 nM; against HLA-A*0206, 1 nM; against HLA-A*6802, 219 nM.
Regarding GERQNATEI [NP.17], the IC50 is more than 10000 nM against HLA-B*1801; 199 nM on HLA-B*4001; 53 nM on HLA-B*4002; more than 10000 nM on HLA-B*4402; more than 10000 nM against HLA-B*4403; 304 nM against HLA-B*4501.
On to GLFGAIAGFI [HA.345], for which the IC50 against HLA-A*0201 stood at 41 nM; against HLA-A*0202 it was 0.4 nM; on HLA-A*0203, 1 nM; against HLA-A*0206 it was 2540 nM; against HLA-A*6802 it was 1530 nM.
For GTFEFTSFFY [PB1.488], the IC50 at HLA-A*0301 came to 16 nM; on HLA-A*1101, 1 nM; against HLA-A*3101 it was 242 nM; at HLA-A*3301, 5410 nM; against HLA-A*6801, 100 nM.
Take KFLPDLYDYK [PA.104]: the IC50 at HLA-A*0301 was 255 nM; against HLA-A*1101, 22 nM; on HLA-A*3101, 2410 nM; against HLA-A*3301, more than 10000 nM; against HLA-A*6801 it was 507 nM.
For KLVGINMSKK [PB1.471], in that order: 14 nM, 315 nM, 518 nM, more than 10000 nM and 1610 nM.
NMLSTVLGV [PB1.413]: the IC50 was determined as 4 nM against HLA-A*0201; 5 nM against HLA-A*0202; 11 nM at HLA-A*0203; 3 nM on HLA-A*0206; 1060 nM against HLA-A*6802.
Turning to QEIRTFSFQL [NS2.184], the IC50 against HLA-B*1801 is 515 nM; on HLA-B*4001 it was 135 nM; on HLA-B*4002, 68 nM; against HLA-B*4402, 102 nM; at HLA-B*4403 it was 431 nM; at HLA-B*4501, 380 nM.
For RLFFKCIYRR [M2.45], the IC50 is 135 nM on HLA-A*0301; 294 nM on HLA-A*1101; 5 nM against HLA-A*3101; 238 nM at HLA-A*3301; 88 nM against HLA-A*6801.
As to SEQAAEAMEV [M1.196], the IC50 against HLA-B*1801 is 1900 nM; at HLA-B*4001 it was 2670 nM; against HLA-B*4002, 85 nM; against HLA-B*4402 it was 2640 nM; against HLA-B*4403 it was 7670 nM; against HLA-B*4501 it was 35 nM.
On to SFSFGGFTFK [PB2.322], for which the IC50 against HLA-A*0301 is 74 nM; against HLA-A*1101 it was 7 nM; at HLA-A*3101 it was 19 nM; against HLA-A*3301, 85 nM; against HLA-A*6801 it was 60 nM.
For SVQPTFSVQR [NP.407], in that order: more than 10000 nM, 37 nM, 21 nM, 181 nM and 84 nM.
Consider SVQRNLPFER [NP.413], for which the IC50 on HLA-A*0301 is more than 10000 nM; at HLA-A*1101, 411 nM; against HLA-A*3101, 104 nM; against HLA-A*3301, 321 nM; on HLA-A*6801, 19 nM.
Take TEVETYVLSI [M1.5]: the IC50 amounted to 136 nM against HLA-B*1801; 133 nM on HLA-B*4001; 195 nM against HLA-B*4002; 6880 nM on HLA-B*4402; 247 nM against HLA-B*4403; 504 nM against HLA-B*4501.
Consider VLRGFLILGK [PB2.690], for which the IC50 at HLA-A*0301 was 10 nM; against HLA-A*1101, 460 nM; at HLA-A*3101, 85 nM; at HLA-A*3301, more than 10000 nM; against HLA-A*6801 it was 1160 nM.
